Assay results published in publication PMC10799085, “A miniaturized mode-of-action profiling platform enables high throughput characterization of the molecular and cellular dynamics of EZH2 inhibition” (Scientific Reports, 2024).
Read-outs that look alike come from different tables or passages of the source.

Legend:
[1] = molecular target: T1, PRC2/EZH2Y641N (Homo sapiens, UniProt Q15910, Y641N); assay: Scintillation proximity assay (SPA) of H3K27 methylation; type: biochemical
T1 construct: Synthetic cDNA encoding N-terminal 6His-tagged full length EZH2^Y641N; 6His (N); made in house; host or cells: Sf9 insect cells (baculovirus co-infection)
Protocol: (§1) Assay-ready plates containing 50 nl of compound dilutions and DMSO controls were filled with 2.5 µL enzyme solution and pre-incubated for 15 min. […] Experiments were also performed without pre-incubation of enzyme and compounds. In this case, the substrate solution was added before enzyme. The reaction was stopped using 1.6 µg/µl streptavidin beads (Perkin Elmer) and 700 µM of SAM (Perkin Elmer). The plates were sealed with transparent foil.
(§2) For equilibrium binding competition (ePCA) and SPA enzyme inhibition assays, raw data import, quality control, normalization, and curve fitting to a 4-parameter logistic equation for IC50 determination were performed using the Genedata Screener® software (Genedata AG). ePCA Ki values were either calculated using the Cheng-Prussof equation[68] or with the GraphPad Prism model “One-site—Fit Ki”.

[2] = molecular target: T2, PRC2/EZH2Y111D (Homo sapiens, UniProt Q15910, Y111D); assay: as above; type: biochemical
T2 construct: N-terminal 6His-tagged full length EZH2^Y641N, EZH2^Y111L, EZH2^Y111D; 6His (N); made in house; host or cells: Sf9 insect cells (baculovirus co-infection)
Protocol: as §1, §2

[3] = molecular target: T3, PRC2/EZH2Y641N+Y661D (Homo sapiens, UniProt Q15910, Y641N/Y661D); assay: as above; type: biochemical
T3 construct: N-terminal 6His-tagged full length EZH2^Y641N, EZH2^Y111L, EZH2^Y111D, EZH2^Y641N, Y661DEZH2, EZH1; 6His (N); made in house; host or cells: Sf9 insect cells (baculovirus co-infection)
Protocol: as §1, §2

[4] = molecular target: T4, PRC2/EZH2+/+ (Homo sapiens, UniProt Q15910); assay: as above; type: biochemical
T4 construct: purchased Active Motif
Protocol: as §1, §2

[5] = molecular target: T5, PRC2/EZH2 Y111L (Homo sapiens, UniProt Q15910, Y111L); assay: as above; type: biochemical
T5 construct: N-terminal 6His-tagged full length EZH2^Y641N, EZH2^Y111L; 6His (N); made in house; host or cells: Sf9 insect cells (baculovirus co-infection)
Protocol: as §1, §2

[6] = in vitro; type: in vitro ADME; details: human, Caco-2, pH 7.2
[7] = molecular target: T4, PRC2/EZH2+/+; assay: Kinetic probe competition assay (kPCA), TR-FRET; type: binding
Protocol: (§3) Biotinylated PRC2 complexes and the fluorescent probe used in TR-FRET assays were generated as described in the supplementary methods section.
For measurements at 25, 30 and 37 °C, the temperature control functionality of the instrument was used.
TR-FRET kPCA traces were exported via Microsoft Excel to GraphPad Prism, where non-specific signals were subtracted and kinetic association competition traces were fitted to the Motulsky–Mahan model “kinetics of competitive binding” to obtain kon (k3), koff (k4) and KD parameters.

[8] = molecular target: T1, PRC2/EZH2Y641N; assay: Kinetic probe competition assay (kPCA), TR-FRET; type: binding
Text: as §3

[9] = molecular target: T1, PRC2/EZH2Y641N; assay: Equilibrium probe competition assay (ePCA), TR-FRET; type: binding
[10] = molecular target: T4, PRC2/EZH2+/+; assay: as above; type: binding
[11] = EZH2Y641N (+ H3K27me3), RT sheet
[12] = EZH2Y641N (- H3K27me3), sheet ePCA&kPCA RT

## Cc1cc(C)c(CN2CCc3c(Cl)cc(-c4c(C)noc4C)c(Cl)c3C2=O)c(=O)[nH]1 [Compound 14]
[1]; 0' enzyme:inhibitor pre-incubation, read-out: SPA Mean IC50 (M) - 0' enzyme:inhibitor pre-incubation hEZH2Y641N
  IC50: 1.5e-08 M
[1]; 15' enzyme:inhibitor pre-incubation, read-out: SPA Mean IC50 (M) - 15' enzyme:inhibitor pre-incubation EZH2Y641N
  IC50: 1.1e-08 M
[1]; 60' enzyme:inhibitor pre-incubation, read-out: SPA Mean IC50 (M) - 60' enzyme:inhibitor pre-incubation EZH2Y641N
  IC50: 1.2e-08 M
[1]; from SPA pIC50 (1.4*pIC50 / atom count), 0' pre-incubation
  Ligand Efficiency - 0' enzyme:inhibitor pre-incubation hEZH2Y641N: 1.4
[1]; from SPA pIC50 (1.4*pIC50 / atom count), 15' pre-incubation
  Ligand Efficiency - 15' enzyme:inhibitor pre-incubation EZH2Y641N: 1.4
[1]; from SPA pIC50 (1.4*pIC50 / atom count), 60' pre-incubation
  Ligand Efficiency - 60' enzyme:inhibitor pre-incubation EZH2Y641N: 1.4
[2]
  Ligand Efficiency - 0' enzyme:inhibitor pre-incubation EZH2Y111D: 0.9
  Ligand Efficiency - 15' enzyme:inhibitor pre-incubation EZH2Y111D: 0.9
  Ligand Efficiency - 60' enzyme:inhibitor pre-incubation EZH2Y111D: 0.857
[2]; 0' enzyme:inhibitor pre-incubation, read-out: SPA Mean IC50 (M) - 0' enzyme:inhibitor pre-incubation EZH2Y111D
  IC50: 1.3e-05 M
[2]; 15' enzyme:inhibitor pre-incubation, read-out: SPA Mean IC50 (M) - 15' enzyme:inhibitor pre-incubation EZH2Y111D
  IC50: 8.5e-06 M
[2]; 60' enzyme:inhibitor pre-incubation, read-out: SPA Mean IC50 (M) - 60' enzyme:inhibitor pre-incubation EZH2Y111D
  IC50: 1.3e-05 M
[3]
  Ligand Efficiency - 0' enzyme:inhibitor pre-incubation EZH2Y641N+Y661D: 1.0
  Ligand Efficiency - 15' enzyme:inhibitor pre-incubation EZH2Y641N+Y661D: 1.0
  Ligand Efficiency - 60' enzyme:inhibitor pre-incubation EZH2Y641N+Y661D: 1.0
[3]; 0' enzyme:inhibitor pre-incubation, read-out: SPA Mean IC50 (M) - 0' enzyme:inhibitor pre-incubation EZH2Y641N+Y661D
  IC50: 1.4e-06 M
[3]; 15' enzyme:inhibitor pre-incubation, read-out: SPA Mean IC50 (M) - 15' enzyme:inhibitor pre-incubation EZH2Y641N+Y661D
  IC50: 1.1e-06 M
[3]; 60' enzyme:inhibitor pre-incubation, read-out: SPA Mean IC50 (M) - 60' enzyme:inhibitor pre-incubation EZH2Y641N+Y661D
  IC50: 1.6e-06 M
[4]
  Ligand Efficiency - 0' enzyme:inhibitor pre-incubation EZH2+/+: 1.5
  Ligand Efficiency - 15' enzyme:inhibitor pre-incubation EZH2+/+: 1.5
  Ligand Efficiency - 60' enzyme:inhibitor pre-incubation EZH2+/+: 1.5
[4]; 0' enzyme:inhibitor pre-incubation, read-out: SPA Mean IC50 (M) - 0' enzyme:inhibitor pre-incubation EZH2+/+
  IC50: 4.1e-09 M
[4]; 15' enzyme:inhibitor pre-incubation, read-out: SPA Mean IC50 (M) - 15' enzyme:inhibitor pre-incubation EZH2+/+
  IC50: 1.9e-09 M
[4]; 60' enzyme:inhibitor pre-incubation, read-out: SPA Mean IC50 (M) - 60' enzyme:inhibitor pre-incubation EZH2+/+
  IC50: 1.8e-09 M
[5]
  Ligand Efficiency - 0' enzyme:inhibitor pre-incubation EZH2 Y111L: 1.0
  Ligand Efficiency - 15' enzyme:inhibitor pre-incubation EZH2 Y111L: 1.1
  Ligand Efficiency - 60' enzyme:inhibitor pre-incubation EZH2 Y111L: 1.0
[5]; 0' enzyme:inhibitor pre-incubation, read-out: SPA Mean IC50 (M) - 0' enzyme:inhibitor pre-incubation EZH2 Y111L
  IC50: 1.1e-06 M
[5]; 15' enzyme:inhibitor pre-incubation, read-out: SPA Mean IC50 (M) - 15' enzyme:inhibitor pre-incubation EZH2 Y111L
  IC50: 9.6e-07 M
[5]; 60' enzyme:inhibitor pre-incubation, read-out: SPA Mean IC50 (M) - 60' enzyme:inhibitor pre-incubation EZH2 Y111L
  IC50: 1.1e-06 M
[6]; 2 µM, 2 h, 37 °C, apical to basolateral, read-out: PK Caco-2 Flux Papp A-B (mean)
  Papp A→B at 2 h, 2 µM: 154 nm/s
[6]; 2 µM, 2 h, 37 °C, basolateral to apical, read-out: PK Caco-2 Flux Papp B-A (mean)
  Papp B→A at 2 h, 2 µM: 174 nm/s
[6]; Papp B-A divided by Papp A-B, read-out: PK Caco-2 Flux Efflux Ratio (mean)
  efflux ratio at 2 h, 2 µM: 1.13
[7]; EZH2+/+ (+ H3K27me3)
  Kinetic Efficiency: 3.61E-02
  Calculated RT: 0.29 h
[7]; EZH2+/+ (+ H3K27me3), sheet ePCA&kPCA RT, read-out: Kinetic Kd
  Kd: 0.303 nM
[7]; EZH2+/+ (+ H3K27me3), sheet ePCA&kPCA RT, read-out: Kinetic koff
  koff: 0.000323 s⁻¹
[7]; EZH2+/+ (+ H3K27me3), sheet ePCA&kPCA RT, read-out: Kinetic kon
  kon: 1.06e+06 M⁻¹ s⁻¹
[7]; EZH2+/+ (- H3K27me3)
  Kinetic Efficiency: 2.67E-02
  Calculated RT: 0.21 h
[7]; EZH2+/+ (- H3K27me3), 5 °C
  RT (Calculated): 2.28 h
[7]; EZH2+/+ (- H3K27me3), 5 °C, read-out: koff (Kinetic)
  koff: 0.000251 s⁻¹
[7]; EZH2+/+ (- H3K27me3), 5 °C, read-out: koff calc (Calculated)
  koff: 0.000122 s⁻¹
[7]; EZH2+/+ (- H3K27me3), 5 °C, read-out: kon (Kinetic)
  kon: 111000 M⁻¹ s⁻¹
[7]; EZH2+/+ (- H3K27me3), 15 °C
  RT (Calculated): 0.613 h
[7]; EZH2+/+ (- H3K27me3), 15 °C, read-out: Kd (Kinetic)
  Kd: 0.378 nM
[7]; EZH2+/+ (- H3K27me3), 15 °C, read-out: koff (Kinetic)
  koff: 0.000211 s⁻¹
[7]; EZH2+/+ (- H3K27me3), 15 °C, read-out: kon (Kinetic)
  kon: 559000 M⁻¹ s⁻¹
[7]; EZH2+/+ (- H3K27me3), 30 °C
  RT (Calculated): 0.244 h
[7]; EZH2+/+ (- H3K27me3), 30 °C, read-out: Kd (Kinetic)
  Kd: 5.24 nM
[7]; EZH2+/+ (- H3K27me3), 30 °C, read-out: koff (Kinetic)
  koff: 0.00307 s⁻¹
[7]; EZH2+/+ (- H3K27me3), 30 °C, read-out: koff calc (Calculated)
  koff: 0.00114 s⁻¹
[7]; EZH2+/+ (- H3K27me3), 30 °C, read-out: kon (Kinetic)
  kon: 582000 M⁻¹ s⁻¹
[7]; EZH2+/+ (- H3K27me3), 37 °C
  RT (Calculated): 0.14 h
[7]; EZH2+/+ (- H3K27me3), 37 °C, read-out: Kd (Kinetic)
  Kd: 2.4 nM
[7]; EZH2+/+ (- H3K27me3), 37 °C, read-out: koff (Kinetic)
  koff: 0.00199 s⁻¹
[7]; EZH2+/+ (- H3K27me3), 37 °C, read-out: koff calc (Calculated)
  koff: 0.00194 s⁻¹
[7]; EZH2+/+ (- H3K27me3), 37 °C, read-out: kon (Kinetic)
  kon: 845000 M⁻¹ s⁻¹
[7]; EZH2+/+ (- H3K27me3), sheet ePCA&kPCA RT, read-out: Kinetic Kd
  Kd: 2.27 nM
[7]; EZH2+/+ (- H3K27me3), sheet ePCA&kPCA RT, read-out: Kinetic koff
  koff: 0.00201 s⁻¹
[7]; EZH2+/+ (- H3K27me3), sheet ePCA&kPCA RT, read-out: Kinetic kon
  kon: 883000 M⁻¹ s⁻¹
[8]; EZH2Y641N (+ H3K27me3)
  Kinetic Efficiency: 2.02E-02
  Calculated RT: 0.16 h
[8]; [11]
  koff: 0.000921 s⁻¹
  kon: 1.28e+06 M⁻¹ s⁻¹
[8]; EZH2Y641N (+ H3K27me3), kinetic, RT sheet
  Kd: 0.68 nM
[8]; EZH2Y641N (- H3K27me3)
  Kinetic Efficiency: 2.35E-02
  Calculated RT: 0.19 h
[8]; [12]
  Kd: 2.83 nM
  koff: 0.00136 s⁻¹
  kon: 496000 M⁻¹ s⁻¹
[9]; EZH2Y641N (+ H3K27me3)
  Ligand Efficiency: 1.6
[9]; EZH2Y641N (+ H3K27me3), equilibrium, RT sheet
  Ki: 1.35 nM
[9]; EZH2Y641N (- H3K27me3)
  Ligand Efficiency: 1.5
[9]; [12]
  Ki: 2.99 nM
[10]; EZH2+/+ (+ H3K27me3)
  Ligand Efficiency: 1.6
[10]; EZH2+/+ (+ H3K27me3), sheet ePCA&kPCA RT, read-out: Equilibrium Ki
  Ki: 0.907 nM
[10]; EZH2+/+ (- H3K27me3)
  Ligand Efficiency: 1.5
[10]; EZH2+/+ (- H3K27me3), 5 °C, read-out: Ki (Equilibrium)
  Ki: 1.1 nM
[10]; EZH2+/+ (- H3K27me3), 15 °C, read-out: Ki (Equilibrium)
  Ki: 0.81 nM
[10]; EZH2+/+ (- H3K27me3), 30 °C, read-out: Ki (Equilibrium)
  Ki: 1.96 nM
[10]; EZH2+/+ (- H3K27me3), 37 °C, read-out: Ki (Equilibrium)
  Ki: 2.3 nM
[10]; EZH2+/+ (- H3K27me3), sheet ePCA&kPCA RT, read-out: Equilibrium Ki
  Ki: 1.47 nM
